Reference: publication PMC4450297, “Screening Active Compounds from Garcinia Species Native to China Reveals Novel Compounds Targeting the STAT/JAK Signaling Pathway” (BioMed Research International, 2015)

The compounds below were run on HCC1569 (assay: Cell panel screen (CellTiter-Glo)). Details: HCC1569 (Breast), 20 micromolar, 72 hrs.
Format: cell-based, human
How it was run: (§1)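 Steps: seed cells, culture overnight at 37°C; add compound diluted in medium from DMSO stock to 20 μM final; incubate 72 h; add detection reagent for 10 min; read luminescence; compute % inhibition versus vehicle controls.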

Question: How did the “Percent Inhibition” value turn out when `CC(C)=CCc1c2c(c(O)c3c1OC14C(=CC5CC1C(C)(C)OC4(CC=C(C)C(=O)O)C5=O)C3=O)C=CC(C)(C)O2` (stereo not drawn) [GB27] was run?
Answer: Its value is 99%.

What follows are compounds tested on HPAF-II (assay: Cell panel screen (CellTiter-Glo)). Details: HPAF-II (Pancreas), 20 micromolar, 72 hrs.
Format: cell-based, human
How it was run: as §1

Question: `CC(C)=CCc1c2c(c(O)c3c1OC14C(=CC5CC1C(C)(C)OC4(CC=C(C)C(=O)O)C5=O)C3=O)C=CC(C)(C)O2` (stereo not drawn) [GB27] was tested. Which “Percent Inhibition” value did it give?
Answer: Its value is 98%.

Each compound was assayed on BT-549 (assay: Cell panel screen (CellTiter-Glo)). Details: BT-549 (Breast), 20 micromolar, 72 hrs.
Format: cell-based, human
How it was run: as §1

Question: `CC(C)=CCc1c2c(c(O)c3c1OC14C(=CC5CC1C(C)(C)OC4(CC=C(C)C(=O)O)C5=O)C3=O)C=CC(C)(C)O2` (stereo not drawn) [GB27] was tested. Which “Percent Inhibition” value did it give?
Answer: The value was 98%.

Each compound was assayed on A704 (assay: Cell panel screen (CellTiter-Glo)). Details: A704 (Kidney), 20 micromolar, 72 hrs.
Format: cell-based, human
How it was run: as §1

Question: With `CC(C)=CCc1c2c(c(O)c3c1OC14C(=CC5CC1C(C)(C)OC4(CC=C(C)C(=O)O)C5=O)C3=O)C=CC(C)(C)O2` (stereo not drawn) [GB27] as the compound, how does the “Percent Inhibition” value read?
Answer: Its value is 98%.

These compounds were tested on ChaGo-K-1 (assay: Cell panel screen (CellTiter-Glo)). Details: ChaGo-K-1 (Lung), 20 micromolar, 72 hrs.
Format: cell-based, human
How it was run: as §1

Question: For `CC(C)=CCc1c2c(c(O)c3c1OC14C(=CC5CC1C(C)(C)OC4(CC=C(C)C(=O)O)C5=O)C3=O)C=CC(C)(C)O2` (stereo not drawn) [GB27], which “Percent Inhibition” value is on record?
Answer: Its value is 98%.

Each compound was assayed on C8166 (assay: Cell panel screen (CellTiter-Glo)). Details: C8166 (Leukemia), 20 micromolar, 72 hrs.
Format: cell-based, human
How it was run: as §1

Question: With `CC(C)=CCc1c2c(c(O)c3c1OC14C(=CC5CC1C(C)(C)OC4(CC=C(C)C(=O)O)C5=O)C3=O)C=CC(C)(C)O2` (stereo not drawn) [GB27] as the compound, how does the “Percent Inhibition” value read?
Answer: Its value is 99%.

Each compound was assayed on T98G (assay: Cell panel screen (CellTiter-Glo)). Details: T98G (Brain), 20 micromolar, 72 hrs.
Format: cell-based, human
How it was run: as §1

Question: How did the “Percent Inhibition” value turn out when `CC(C)=CCc1c2c(c(O)c3c1OC14C(=CC5CC1C(C)(C)OC4(CC=C(C)C(=O)O)C5=O)C3=O)C=CC(C)(C)O2` (stereo not drawn) [GB27] was run?
Answer: Its value is 99%.

Each compound was assayed on CW-2 (assay: Cell panel screen (CellTiter-Glo)). Details: CW-2 (Colon), 20 micromolar, 72 hrs.
Format: cell-based, human
How it was run: as §1

Question: How did the “Percent Inhibition” value turn out when `CC(C)=CCc1c2c(c(O)c3c1OC14C(=CC5CC1C(C)(C)OC4(CC=C(C)C(=O)O)C5=O)C3=O)C=CC(C)(C)O2` (stereo not drawn) [GB27] was run?
Answer: Its value is 99%.

Each compound was assayed on SW13 (assay: Cell panel screen (CellTiter-Glo)). Details: SW13 (Adrenal gland), 20 micromolar, 72 hrs.
Format: cell-based, human
How it was run: as §1

Question: With `CC(C)=CCc1c2c(c(O)c3c1OC14C(=CC5CC1C(C)(C)OC4(CC=C(C)C(=O)O)C5=O)C3=O)C=CC(C)(C)O2` (stereo not drawn) [GB27] as the compound, how does the “Percent Inhibition” value read?
Answer: Its value is 99%.

Each compound was assayed on NCI-H524 (assay: Cell panel screen (CellTiter-Glo)). Details: NCI-H524 (Lung), 20 micromolar, 72 hrs.
Format: cell-based, human
How it was run: as §1

Question: Which “Percent Inhibition” value does the source give for `CC(C)=CCc1c2c(c(O)c3c1OC14C(=CC5CC1C(C)(C)OC4(CC=C(C)C(=O)O)C5=O)C3=O)C=CC(C)(C)O2` (stereo not drawn) [GB27] here?
Answer: The value was 99%.

These compounds were tested on Panc 03.27 (assay: Cell panel screen (CellTiter-Glo)). Details: Panc 03.27 (Pancreas), 20 micromolar, 72 hrs.
Format: cell-based, human
How it was run: as §1

Question: How did the “Percent Inhibition” value turn out when `CC(C)=CCc1c2c(c(O)c3c1OC14C(=CC5CC1C(C)(C)OC4(CC=C(C)C(=O)O)C5=O)C3=O)C=CC(C)(C)O2` (stereo not drawn) [GB27] was run?
Answer: Its value is 97%.

These compounds were tested on NCI-H28 (assay: Cell panel screen (CellTiter-Glo)). Details: NCI-H28 (Lung), 20 micromolar, 72 hrs.
Format: cell-based, human
How it was run: as §1

Question: For `CC(C)=CCc1c2c(c(O)c3c1OC14C(=CC5CC1C(C)(C)OC4(CC=C(C)C(=O)O)C5=O)C3=O)C=CC(C)(C)O2` (stereo not drawn) [GB27], which “Percent Inhibition” value is on record?
Answer: Its value is 90%.

What follows are compounds tested on TCCSUP (assay: Cell panel screen (CellTiter-Glo)). Details: TCCSUP (Urinary bladder), 20 micromolar, 72 hrs.
Format: cell-based, human
How it was run: as §1

Question: How did the “Percent Inhibition” value turn out when `CC(C)=CCc1c2c(c(O)c3c1OC14C(=CC5CC1C(C)(C)OC4(CC=C(C)C(=O)O)C5=O)C3=O)C=CC(C)(C)O2` (stereo not drawn) [GB27] was run?
Answer: Its value is 99%.

Each compound was assayed on T47D (assay: Cell panel screen (CellTiter-Glo)). Details: T47D (Breast), 20 micromolar, 72 hrs.
Format: cell-based, human
How it was run: as §1

Question: For `CC(C)=CCc1c2c(c(O)c3c1OC14C(=CC5CC1C(C)(C)OC4(CC=C(C)C(=O)O)C5=O)C3=O)C=CC(C)(C)O2` (stereo not drawn) [GB27], which “Percent Inhibition” value is on record?
Answer: The value was 99%.

These compounds were tested on NCI-H1770 (assay: Cell panel screen (CellTiter-Glo)). Details: NCI-H1770 (Lung), 20 micromolar, 72 hrs.
Format: cell-based, human
How it was run: as §1

Question: For `CC(C)=CCc1c2c(c(O)c3c1OC14C(=CC5CC1C(C)(C)OC4(CC=C(C)C(=O)O)C5=O)C3=O)C=CC(C)(C)O2` (stereo not drawn) [GB27], which “Percent Inhibition” value is on record?
Answer: The value was 99%.

Each compound was assayed on MSTO-211-H (assay: Cell panel screen (CellTiter-Glo)). Details: MSTO-211-H (Lung), 20 micromolar, 72 hrs.
Format: cell-based, human
How it was run: as §1

Question: How did the “Percent Inhibition” value turn out when `CC(C)=CCc1c2c(c(O)c3c1OC14C(=CC5CC1C(C)(C)OC4(CC=C(C)C(=O)O)C5=O)C3=O)C=CC(C)(C)O2` (stereo not drawn) [GB27] was run?
Answer: The value was 99%.

What follows are compounds tested on NCI-H1694 (assay: Cell panel screen (CellTiter-Glo)). Details: NCI-H1694 (Lung), 20 micromolar, 72 hrs.
Format: cell-based, human
How it was run: as §1

Question: `CC(C)=CCc1c2c(c(O)c3c1OC14C(=CC5CC1C(C)(C)OC4(CC=C(C)C(=O)O)C5=O)C3=O)C=CC(C)(C)O2` (stereo not drawn) [GB27] was tested. Which “Percent Inhibition” value did it give?
Answer: The value was 99%.

Each compound was assayed on ZR-75-30 (assay: Cell panel screen (CellTiter-Glo)). Details: ZR-75-30 (Breast), 20 micromolar, 72 hrs.
Format: cell-based, human
How it was run: as §1

Question: How did the “Percent Inhibition” value turn out when `CC(C)=CCc1c2c(c(O)c3c1OC14C(=CC5CC1C(C)(C)OC4(CC=C(C)C(=O)O)C5=O)C3=O)C=CC(C)(C)O2` (stereo not drawn) [GB27] was run?
Answer: The value was 99%.
